From US11607414B2, “Small molecule inhibitors of EGFR and PI3K” (The Regents of the University of Michigan, priority 2014, dated 2023)

Tests used:
[1] = Solubility comparison; assay type: physicochemical
[2] = tested on: KRAS mutant HCT-116 cells; test: HCT-116 cell viability / proliferation (Cell Titer Glo); assay type: cell-based
Protocol: Cell proliferation was determined using the Cell Titer Glo assay (Promega, Madison, Wis.). Cell lines were seeded at a density between 2,000 and 5,000 cells per well in a 96-well plate. Twenty four hours after plating, cells were dosed with varying concentrations of drug, either as a single agent or in combination. The signal for Cell Titer Glo was determined 72 or 96 hours after dosing.

[3] = tested on: pAKT and pEGFR in HCT-116 cells; test: Effect on pAKT and pEGFR in HCT-116 cells (Western blot); assay type: cell-based
Protocol: [50 mmol/L Tris-HCl (pH 8.0), 150 mmol/L NaCl, 1% NP40, 0.5% Na-deoxycholate, 0.1% SDS, containing protease (P8340, Sigma, St. Louis, Mo.) and phosphatase (P5726, Sigma) inhibitor cocktails]. The soluble protein concentration was determined by micro-bovine serum albumin assay (Pierce, Rockford, Ill.). Protein immunodetection was done by electrophoretic transfer of SDS-PAGE separated proteins to nitrocellulose, incubation with antibody, and chemiluminescent second step detection (PicoWest, Pierce). The antibodies included EGFR, phospho-EGFR (Y1068), phospho-p42/p44, phospho-Akt (473), phospho-Akt (308), total Akt, phosho-S6 (235/236), and total S6. All antibodies were obtained from Cell Signaling Technologies (Danvers, Mass.). […]
Cell extracts were prepared by detergent lysis [25 mmol/L Tris-HCl (pH 7.6), 150 mmol/L NaCl, 1% Nonidet P-40, 10% glycerol, 1 mM EDTA, 1 mmol/L dithiothreitol (DTT), and protease and phosphatase inhibitors, rocked for 30 minutes at 4° C., and centrifuged at 14,000 rpm for 20 min at 4° C. Protein concentration was determined by BioRad Protein Assays and lysates were subsequently subjected to SDS gel electrophoresis. […] After incubation with either anti-rabbit HRP or anti-mouse HRP linked secondary antibody (Jackson ImmunoResearch Laboratories, Inc.), proteins were detected using chemiluminescence (GE Healthcare).

[4] = tested on: phosphorylation of AKT in HCT-116 tumors; test: In vivo pharmacodynamics in subcutaneous HCT-116 tumors, pAKT; settings: single oral dose 100 mg/kg, two hours post-dosing
Source text: (§1) However, additional synthesis of MOL-162 is needed to allow a full pharmacodynamic time course study to be carried out to determine the maximal degree of target inhibition of both targets after single and repeated daily dosing.

[5] = tested on: phosphorylation of EGFR in HCT-116 tumors; test: In vivo pharmacodynamics in subcutaneous HCT-116 tumors, pEGFR; settings: single oral dose 100 mg/kg, two hours post-dosing
Source text: as §1

solubility (comparison) [1]: significantly more soluble than MOL-153
SMILES: CS(=O)(=O)Nc1cncc(-c2ccc3ncnc(Nc4cccc(Cl)c4)c3c2)c1 [MOL-162, N-(5-(4-((3-chlorophenyl)amino)quinazolin-6-yl)pyridin-3-yl)methanesulfonamide]
cytotoxicity [2]: cytotoxicity
cellular modulation of EGFR and PI3K pathways [3]: cellular modulation of both pathways
phosphorylation of AKT in tumors [4]: not as strongly inhibited
phosphorylation of EGFR in tumors [5]: completely suppressed
